According to patent US8802655B2, “4-hydroxybenzomorphans” (Rensselaer Polytechnic Institute, priority 2004, dated 2014):
Like-named read-outs stand apart in the source and are kept apart here.

Key:
Format in all cases: binding
μ opioid receptor = μ opioid receptor (Homo sapiens, UniProt P35372); conditions: read-out: Ki (nM ± S.E.) [^3H]DAMGO (μ)
Method: (§1) The affinities of the compounds of the invention are determined by the method described in Wentland et al. [BioOrg.

κ opioid receptor = biological target: T1, κ opioid receptor (UniProt P41144)
T1 construct: rows headed: Ki (nM ± S.E.) [^3H]U69,593 (κ); other: radioligand [3H]U69,593
Method: as §1

δ opioid receptor [1] = biological target: T2, δ opioid receptor (UniProt A0A286XTF2); parameters: unit μM; conditions: radioligand [3H]Naltrindole
Method: as §1

δ opioid receptor [2] = biological target: T2, δ opioid receptor; conditions: read-out: Ki (nM ± S.E.) [^3H]Naltrindole (δ); radioligand [3H]Naltrindole
Method: as §1

[3] = radioligand [3H]U69,593; read-out: Ki (nM ± S.E.) [^3H]U69,593 (κ)
[4] = read-out: Ki (nM ± S.E.) [^3H]Naltrindole (δ)
[5] = read-out: Ki (nM ± S.E.) [^3H]U69,593 (κ); radioligand [3H]U69,593

Chain of μ opioid receptor (P35372 whole entry): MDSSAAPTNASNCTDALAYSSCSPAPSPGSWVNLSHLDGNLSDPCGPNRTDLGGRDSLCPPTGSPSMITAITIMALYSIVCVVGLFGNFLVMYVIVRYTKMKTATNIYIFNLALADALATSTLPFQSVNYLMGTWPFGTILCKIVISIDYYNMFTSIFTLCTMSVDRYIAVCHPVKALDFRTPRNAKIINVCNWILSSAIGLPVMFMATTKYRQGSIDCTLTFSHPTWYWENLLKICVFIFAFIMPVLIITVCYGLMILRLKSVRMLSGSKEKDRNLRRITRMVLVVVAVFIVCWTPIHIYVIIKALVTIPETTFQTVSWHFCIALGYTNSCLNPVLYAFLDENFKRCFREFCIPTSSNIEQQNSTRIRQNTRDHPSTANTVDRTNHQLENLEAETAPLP

Row | SMILES | Ki (μ opioid receptor) [nM] | Ki (κ opioid receptor; [3]) [nM] | Ki (δ opioid receptor [1]; [4]) [nM] | Ki (κ opioid receptor; [5]) [nM] | Ki (δ opioid receptor [1]; read-out: Ki [^3H]Naltrindole (δ), unit μM) [nM] | Ki (δ opioid receptor [2]) [nM]
1 | NC(=O)c1ccc2c3c1O[C@H]1C(=O)CC[C@@]4(O)[C@@H](C2)N(CC2CC2)CC[C@]314 [Sample 2, 3-Carboxyamido-naltrexone] | 1.9 ± 0.21 | 22 ± 0.85 | 110 ± 8.1 |  |  | 
2 | NC(=O)c1ccc2c(c1O)[C@]13CCN(CC4CC4)[C@H](C2)[C@]1(O)CCC(=O)C3 [Sample 3, 3-Carboxyamido-4-hydroxy-naltrexone] | 0.052 ± 0.004 | 0.23 ± 0.018 | 2.6 ± 0.26 |  |  | 
3 | COc1ccc2c(c1O)[C@]13CCN(CC4CC4)[C@H](C2)[C@]1(O)CCC(=O)C3 [Sample 4, 3-methoxy-4-hydroxy-naltrexone] |  |  |  | 12 ± 0.29 | > 10000 | 
4 | COc1ccc2c(c1O)[C@]13CCN(C)[C@H](C2)[C@@H]1C=CC(=O)C3 [Sample 7, 3-Methoxy-4-hydroxy-6-oxo-morphine] |  |  | 2000 ± 80 | 740 ± 25 |  | 
5 | COc1ccc2c(c1O)[C@]13CCN(C)[C@H](C2)[C@@H]1CCC(=O)C3 [Sample 8, 3-Methoxy-4-hydroxy-6-oxo-7,8-dihydro-morphine] |  |  | 1200 ± 65 | 350 ± 8.5 |  | 
6 | NC(=O)c1ccc2c(c1O)[C@]13CCN(CC4CCC4)[C@H](C2)[C@]1(O)CCC(=O)C3 [Sample 21, 3-Carboxamido-4-hydroxy-6-oxo-nalbuphine] |  |  |  | 0.27 ± 0.013 |  | 4.2 ± 0.36
7 | NC(=S)c1ccc2c(c1O)[C@]13CCN(CC4CC4)[C@H](C2)[C@]1(O)CCC(=O)C3 [Sample 26, 3-Thiocarboxyamido-4-hydroxy-naltrexone] |  |  | 140 ± 11 | 5 ± 0.72 |  | 
